Patent US9228175B2, “Genes encoding a novel type of lysophophatidylcholine acyltransferases and their use to increase triacylglycerol production and/or modify fatty acid composition” (National Research Counsel of Canada, priority 2006, dated 2016)

How the values were obtained:
Format in all cases: biochemical
[1] = target: T1, AtLPCAT2 (Arabidopsis thaliana, UniProt Q9CAN8); test: Zn^2+ sensitivity of AtLPCAT2, in vitro LPCAT assay; details: increasing ZnCl2; 25 μM palmitoyl-LPC, 25 μM stearyl-CoA, 20 μg microsomal protein, pH 7.4
T1 construct: made in house; host or cells: S. cerevisiae YOR175c deletion strain BY02431 (lca1Δ), pYES2.1 TOPO, galactose induction; microsomal protein
T1 sequence (Q9CAN8 1-465): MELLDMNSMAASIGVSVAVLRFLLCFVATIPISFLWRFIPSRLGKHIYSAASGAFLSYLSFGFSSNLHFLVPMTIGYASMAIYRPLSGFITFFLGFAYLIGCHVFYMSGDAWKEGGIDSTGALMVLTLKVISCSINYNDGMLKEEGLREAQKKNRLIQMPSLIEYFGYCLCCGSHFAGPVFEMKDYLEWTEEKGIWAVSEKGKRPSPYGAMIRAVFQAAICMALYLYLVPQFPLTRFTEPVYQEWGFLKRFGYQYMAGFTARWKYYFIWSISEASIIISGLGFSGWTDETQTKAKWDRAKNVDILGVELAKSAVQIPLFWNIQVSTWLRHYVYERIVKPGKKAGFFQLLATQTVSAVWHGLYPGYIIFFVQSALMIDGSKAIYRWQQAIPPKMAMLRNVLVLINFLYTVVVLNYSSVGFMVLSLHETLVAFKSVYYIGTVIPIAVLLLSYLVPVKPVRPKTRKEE
Method: (§1) FIG. 19 is a graph depicting the inhibitory effect of Zn^2+ on AtLPCATs activity. The lca1Δ over-expressing AtLPCATs was used to asses Zn^2+ effect. The reactions contained 25 μM palmitoyl-LPC (1.35 nCi/nmol), 20 μg microsomal proteins, 0.1 M HEPES (pH 7.4), 25 μM stearyl-CoA and indicated concentration of ZnCl2.
(§2) AtLPCAT substrate specificity was determined by counting incorporation of 14C-labeled lysophosphatidylcholine or 14C-labeled palmitoyl-CoA into phosphatidylcholine. All assays were performed at least twice. […] reaction mixture contained […] microsomal protein, […] acyl-CoA and […], pH7.4. 14C-lysophosphatidylcholine (1.4 nCi/nmol) or 14C-palmityl-CoA (5.5 nCi/nmol) was used to assess fatty-CoA or lyso-lipid substrate specificity. Reaction was allowed for ten minutes at 30° C. All radiolabel chemicals for these assays were purchased from ARC, Inc.

[2] = target: T2, AtLPCAT1 (Arabidopsis thaliana, UniProt F4IDU4); test: Zn^2+ sensitivity of AtLPCAT1, in vitro LPCAT assay; details: increasing ZnCl2; 25 μM palmitoyl-LPC, 25 μM stearyl-CoA, 20 μg microsomal protein, pH 7.4
T2 construct: made in house; host or cells: S. cerevisiae YOR175c deletion strain BY02431 (lca1Δ), pYES2.1 TOPO, galactose induction; microsomal protein
T2 sequence (F4IDU4 1-462): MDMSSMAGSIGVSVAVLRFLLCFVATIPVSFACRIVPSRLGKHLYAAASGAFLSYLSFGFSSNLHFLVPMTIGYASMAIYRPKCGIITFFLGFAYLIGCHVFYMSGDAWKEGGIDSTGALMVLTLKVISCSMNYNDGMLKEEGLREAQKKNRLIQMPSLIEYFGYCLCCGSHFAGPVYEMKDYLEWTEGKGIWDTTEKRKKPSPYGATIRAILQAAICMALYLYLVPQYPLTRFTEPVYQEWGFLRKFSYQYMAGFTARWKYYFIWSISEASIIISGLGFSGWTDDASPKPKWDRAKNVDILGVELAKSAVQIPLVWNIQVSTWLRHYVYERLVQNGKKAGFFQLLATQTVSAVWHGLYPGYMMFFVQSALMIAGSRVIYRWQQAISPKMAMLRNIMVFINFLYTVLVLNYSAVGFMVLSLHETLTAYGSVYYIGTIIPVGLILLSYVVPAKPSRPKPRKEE
Method: as §1, §2

[3] = target: T3, LCA1 (Saccharomyces cerevisiae, UniProt Q08548); test: Zn^2+ / Mg^2+ effect on LPCAT activity of LCA1 (in vitro assay, microsomes of lca1Δ over-expressing LCA1); details: for LPCAT activity (% control): 5.6 μM palmitoyl-LPC, 11.25 μM stearyl-CoA, 1.5 μg microsomal protein, pH 7.4, two minutes, mean±S.D.
T3 construct: Saccharomyces cerevisiae YOR175c ORF was PCR-amplified; made in house; host or cells: S. cerevisiae YOR175c deletion strain Y02431 (lca1Δ), pYES2.1, galactose induction; microsomal fraction
T3 sequence (Q08548 1-619): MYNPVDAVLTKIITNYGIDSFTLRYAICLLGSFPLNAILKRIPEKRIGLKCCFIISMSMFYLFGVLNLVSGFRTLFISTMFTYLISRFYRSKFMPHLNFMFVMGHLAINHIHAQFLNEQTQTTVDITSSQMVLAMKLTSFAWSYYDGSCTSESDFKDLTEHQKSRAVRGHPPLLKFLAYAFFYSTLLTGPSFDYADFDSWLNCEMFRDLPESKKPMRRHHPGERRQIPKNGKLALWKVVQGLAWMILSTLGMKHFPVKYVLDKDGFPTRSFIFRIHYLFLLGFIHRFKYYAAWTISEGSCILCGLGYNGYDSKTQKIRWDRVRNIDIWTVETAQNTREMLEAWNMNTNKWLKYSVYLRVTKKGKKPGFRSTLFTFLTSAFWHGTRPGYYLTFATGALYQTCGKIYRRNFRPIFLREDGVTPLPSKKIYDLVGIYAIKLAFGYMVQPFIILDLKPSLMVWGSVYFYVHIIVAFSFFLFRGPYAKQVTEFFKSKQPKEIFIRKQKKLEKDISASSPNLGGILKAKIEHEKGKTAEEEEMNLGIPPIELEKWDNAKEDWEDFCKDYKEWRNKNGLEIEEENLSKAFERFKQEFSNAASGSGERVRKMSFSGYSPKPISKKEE
Method: Microsomal preparation: Yeast strains were first grown in 15 ml of SC-Leu-His-Ura medium containing 2% glucose. Protein expression induction was carried out as described in Invitrogen manufacturer manual for yeast expression vector pYES2.1. After 24 hours of growth in SC+2% galactose+1% raffinose induction conditions, the cells were washed, first with distilled water and then with wall-breaking buffer (50 mM Tris-HCl, 1 mM EDTA, 0.6 M sorbitol, pH 7.4, 1 mM DTT). After centrifugation at 4,000 rpm (Eppendorf Centrifuge 5145C), the cells were resuspended in 1 ml wall-breaking buffer with 10 μl yeast protease cocktail (Sigma), and shaken vigorously in the presence of acid-washed glass beads (diameter 0.5 mm). The resultant homogenate was centrifuged at 12,000 rpm for ten minutes at 4° C. The decanted supernatant was further centrifuged at 100,000×g for 90-120 minutes at 4° C. The supernatant was discarded, and the pellet was suspended in homogenization buffer containing 20% glycerol and frozen at −80° C. until use. Protein concentration was measured using Bio-Rad Protein Assay Kit for final enzyme activity calculation.
In Vitro Assay of LPCAT activity: LPCAT substrate specificity was determined by measuring incorporation of [^14C] lysophosphatidylcholine or [^14C] palmitoyl-CoA into phosphatidylcholine. All assays were performed at least twice. For lysophospholipid substrate specificity assessment, 400 μl HEPES buffer contained 3 μg microsomal protein, 50 μM of lysophospholipid substrates and 112.5 μM [^14C] palmitoyl-CoA (5.5 nCi/nmol). For acyl-CoA substrate selectivity analysis, 400 μl HEPES reaction buffer (pH7.4, 0.1 M) contained 3 μg microsomal protein, 50 μM acyl-CoA and 112.5 μM [^14C] […] (1.35 nCi/nmol). Reaction was allowed for 2 minutes at 30° C. with 100 rpm shaking. The reaction products were extracted with chloroform/methanol (2/1, v/v) and separated with Merck silica G60 TLC plates. Spots corresponding to different phospholipid species products were scraped off and ^14C incorporation were scintillation counted. Different concentrations of ZnCl2 were added in to reactions for Zn^2+ inhibitory effect assay.
Results are expressed as means±S.D. The lca1Δ over-expressing LCA1 was used to assess Zn^2+ effect. The reactions contained 5.6 μM palmitoyl-LPC (1.35 nCi/nmol), 1.5 μg microsomal proteins, 0.1 M HEPES (pH 7.4), 11.25 μM stearyl-CoA and indicated concentration of ZnCl2. The reaction was stopped after two minutes by adding 2 ml of chloroform/methanol solution (2:1).

[Cl-].[Cl-].[Zn+2] [ZnCl2]
AtLPCAT2 activity with Zn^2+ added [1]: decreased with increasing concentration | AtLPCAT1 activity with Zn^2+ added [2]: decreased with increasing concentration | Concentration at which the maximum increase of LPCAT activity was observed [3]: 25 µM | LPCAT activity (% control) ([3]; 5 μM ZnCl2): 98 ± 5.9 % control | LPCAT activity (% control) ([3]; 10 μM ZnCl2): 136.8 ± 3.9 % control | LPCAT activity (% control) ([3]; 25 μM ZnCl2): 149.7 ± 12.0 % control | LPCAT activity (% control) ([3]; 0.1 mM ZnCl2): 35 ± 22.4 % control | LPCAT activity (% control) ([3]; 20 mM ZnCl2): 6 ± 2.0 % control | Effect on LPCAT activity of LCA1 ([3]; lower (10-25 μM) concentration): enhanced LPCAT activity | Effect on LPCAT activity of LCA1 ([3]; range between 0.1 mM to 20 mM): significant reduction
